Experimental findings from US20150005347A1, “NITROGEN-CONTAINING HETEROCYCLIC DERIVATIVE HAVING 2-IMINO GROUP AND PEST CONTROL AGENT INCLUDING THE SAME” (MEIJI SEIKA PHARMA CO., LTD., priority 2012, published 2015) are described below.

Read-outs that look alike come from different tables or passages of the source. Bounds are passed on as bounds.

What all share (format): in vivo
One data set deals with Plutella xylostella. The data set can be described thus: Plutella xylostella control test, cabbage leaf disk foliar spray. As to conditions: Plutella xylostella, foliar. In a few lines: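 Cabbage leaf disks (5.0 cm) were sprayed with compound in 50% acetone water with 0.05% Tween20, air-dried, then infested with second instar larvae. Disks were held at 25° C under 16 h light/8 h dark, in duplicate. Percent larval mortality was calculated as dead over total larvae.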

Another data set deals with Spodoptera litura. The data set can be described thus: Pest control test against Spodoptera litura, cabbage leaf disk foliar spray. The following applies: Spodoptera litura, foliar. As for the experimental part:
Test Example 2 Pest Control Test Against Spodoptera litura
A leaf disk having a diameter of 5.0 cm was cut out from a cabbage in pot culture, and a drug solution of the compound of the present invention at a predetermined concentration, which had been prepared so as to be a 50% acetone water (0.05% Tween20 available), was sprayed to the leaf disk. After an air drying process, third instar larvae were released thereto. Thereafter, the larvae were left to stand in a thermostatic chamber (16 hours of light period-8 hours of dark period) at 25° C. […] Test in duplicate.
(§1) Mortality of larvae(%)={number of dead larvae/(number of survived larvae+number of dead larvae)}×100

In another data set the test system is Laodelphax striatella. The data set can be described thus: Pest control test of Laodelphax striatella, soil irrigation treatment of rice seedling. As to conditions: soil irrigation treatment.
From the text: <Soil Irrigation Treatment Test>
Test Example 10 Pest Control Test of Laodelphax striatellua
A rice seedling in pot culture was subjected to soil irrigation treatment with a drug solution of the compound of the present invention at a predetermined concentration, which had been prepared so as to be a 10% acetone water. Three days after the treatment, ten second instar larvae of Laodelphax striatella were each released thereto. Thereafter, the larvae were left to stand in a thermostatic chamber (16 hours of light period-8 hours of dark period) at 25° C. […] The test was performed in duplicate.
as §1

The next data set has as its system Sogatella furcifera. The data set can be described thus: Pest control test of Sogatella furcifera, soil irrigation treatment. The protocol:
Test Example 11 Pest Control Test of Sogatella furcifera
A rice seedling in pot culture was subjected to soil irrigation treatment with a drug solution of the compound of the present invention at a predetermined concentration, which had been prepared so as to be a 10% acetone water. Three days after the treatment, ten second instar larvae of Sogatella furcifera were each released thereto. Thereafter, the larvae were left to stand in a thermostatic chamber (16 hours of light period-8 hours of dark period) at 25° C. […] The test was performed in duplicate.
as §1

Data set [1] has as its system Laodelphax striatella exhibiting drug resistance to fipronil. Briefly: Foliar spray test, Laodelphax striatella exhibiting drug resistance to fipronil. The following applies: Laodelphax striatellus, 144 h, read-out: mortality of larvae. The protocol:
Test Example 15 Pest Control Test of Laodelphax striatella
A drug solution of the compound of the present invention at a predetermined concentration, which had been prepared so as to be a 50% acetone water (0.05% Tween20 available), was foliar sprayed to a rice seedling in pot culture. […] Thereafter, the larvae were left to stand in a thermostatic chamber (16 hours of light period-8 hours of dark period) at 25° C. […] Test in duplicate.
as §1
Further, for the origin of test pests, insects of Laodelphax striatella collected outdoors within the Kumamoto prefecture in 2006 were used.

For data set [2], the system named is susceptible populations of Laodelphax striatella. The data set can be described thus: Soil irrigation test, susceptible populations of Laodelphax striatella. The following applies: Rate 0.005 mg/pot. As for the experimental part:
A rice seedling in pot culture was subjected to soil irrigation treatment with a drug solution of the compound of the present invention at a predetermined concentration, which had been prepared so as to be a 10% acetone water. […] Thereafter, the larvae were left to stand in a thermostatic chamber (16 hours of light period-8 hours of dark period) at 25° C. […] The test was performed in duplicate.
as §1
Further, for comparison, the test against a populations of Laodelphax striatella which is highly susceptible to fipronil was performed by the same method as described above, and the results thereof are shown in Table 45.
In addition, for the origin of test pests, bugs collected within the Kumamoto prefecture in 2006 as the drug resistant Laodelphax striatella, and bugs successively reared indoors for a long time as the susceptible populations of Laodelphax striatella were used.

A further data set relates to Musca domestica. The data set can be described thus: Pest control test of Musca domestica adults, sucrose pledget. As to conditions: 50 ppm in 40% sucrose liquid; four days after release. The protocol:
Test Example 21 Pest Control Test of Musca domestica
A drug solution of the compound of the present invention, which had been adjusted to be 50 ppm with a 40% sucrose liquid, was adsorbed on a pledget, and the pledget was put into a vial. Two adults reared indoors were released thereto. Thereafter, the adults were left to stand indoors at room temperature of 25° C. […] When two adults were all agonized in death, it was judged to be effective.

The test system of a further data set is Ctenocephalides felis. Briefly: Pest control test of Ctenocephalides felis on the body surface of a dog. The following applies: 72 h, read-out: mortality of insects. The protocol: Test Example 26 Pest Control Test of Ctenocephalides felis
Three petri dishes with a diameter of 9 cm and a height of 1 cm were adhered to the back of a dog. Compound 1-20 of the present invention was dissolved in ethanol so as to be 5.35 mg/mL, and the mixture was added dropwise to the body surface of the dog in the petri dish. The petri dish was sufficiently dried, and then twenty insects of Ctenocephalides felis were released thereto. Each dog was housed in a cage and reared under conditions of 10 hours of light period and 14 hours of dark period at 23° C. Three days after the release, the petri dishes were detached therefrom to measure the numbers of living and dead insects of Ctenocephalides felis and blood-sucking individuals, and the mortality of insects was calculated according to the following equation.
(§2) Mortality of insects(%)={number of dead insects/(number of survived insects+number of dead insects)}×100

For the next data set, the system named is Coptotermes formosanus. Briefly: Pest control test of Coptotermes formosanus, treated filter paper. As to conditions: 168 h, read-out: mortality of insects. The protocol:
Test Example 27 Pest Control Test of Coptotermes formosanus
A filter paper was allowed to be soaked in a drug solution of the compound of the present invention at a predetermined concentration, which had been prepared with acetone. The filter paper was sufficiently blow-dried and then put into a plastic petri dish, and 5 insects of Coptotermes formosanus (worker ant) were each released thereto. Thereafter, the insects were left to stand in a thermostatic chamber (16 hours of light period-8 hours of dark period) at 25° C. […] The test was performed in duplicate.
as §2

[3] abbreviates: 72 h, read-out: mortality of larvae.
Setting [4] is: read-out: % Mortality, Test Example1 Plutella xylostella.

One may read the mortality as the share of the test organisms that died. `FC(F)(F)C(=S)/N=c1\ccccn1Cc1ccc(Cl)nc1` [Compound 1-20, N-[1-((6-chloropyridin-3-yl)methyl)pyridin-2(1H)-ylidene]-2,2,2-trifluoroethanethioamide]: the mortality at 100 ppm in the data set with Plutella xylostella (setting [3]) is at least 80%; in the data set on Plutella xylostella (setting [4]), 100%; in the data set on Spodoptera litura (setting [3]) it was at least 80%; in the data set on Spodoptera litura (read-out: % Mortality, Test Example2 Spodoptera litura), 90%. For the same compound, in the data set with Plutella xylostella (setting [4]), the mortality at 5 ppm is 50%. Also, the mortality at 20 ppm in the data set with Plutella xylostella (setting [4]) turned out to be 100%. In addition, the figures for the “% Mortality, Test Example 10 Laodelphax striatella” value with Laodelphax striatella (0.005 mg/pot), with Laodelphax striatella (0.01 mg/pot) and with Laodelphax striatella (0.05 mg/pot) were 75%, 91% and 100%, respectively. Moreover, the “% Mortality, Test Example 11 Sogatella furcifera” value with Sogatella furcifera (0.005 mg/pot) is 53%; in the data set on Sogatella furcifera (0.01 mg/pot) it was 88%. Besides, the mortality at 1.25 ppm in data set [1] was at least 80%. Moreover, in data set [2], the “Insecticidal effects against Laodelphax striatella (mortality of larvae %), Susceptible populations six days after the treatment” value is 85%. Besides, in the data set with Musca domestica, the “activity against adults (effective when two adults were all agonized in death)” value is on record as “all the adults are agonized in death”. In addition, in the data set on Ctenocephalides felis, the mortality at 5350 µg/mL stood at 100%. Moreover, the mortality at 0.5 µg/cm2 in the data set on Coptotermes formosanus is 100%.
